From publication PMC9862759 (Viruses, 2023)
Several values for one entry are separate records, joined by “and”; a condition that tells them apart may be missing. Equal values may be shown once. Read-outs that look alike come from different tables or passages of the source.

Tests used:
SARS-CoV-2 pseudovirus [1] = assay: microbe, parasite or virus in culture; details: Severe acute respiratory syndrome-related coronavirus, read-out: IC50 (inhibition of pseudovirus entry into host cells)
HEK 293 cells = assay: MTT cytotoxicity on human normal cell line HEK 293 (24 h); assay type: cell-based; details: Homo sapiens, HEK293, 24 h, read-out: IC50 Values of Human Normal Cell Lines, HEK 293
SARS-CoV-2 pseudovirus [2] = details: for IC50: read-out: IC50 (inhibition of pseudovirus entry into host cells)
Beas-2B cells = assay: MTT cytotoxicity on human normal cell line Beas-2B (24 h); assay type: cell-based; details: Homo sapiens, BEAS-2B, 24 h, read-out: IC50 Values of Human Normal Cell Lines, Beas-2B
HEK-293T-ACE2^h cells = assay: MTT cytotoxicity assay on host cells (4 h); assay type: cell-based, human; details: MTT, 4 h
LO2 cells = assay: MTT cytotoxicity on human normal cell line LO2 (24 h); assay type: cell-based; details: Homo sapiens, L02, 24 h, read-out: IC50 Values of Human Normal Cell Lines, LO2

| Structure (SMILES) | IC50 (SARS-CoV-2 pseudovirus [1]) [µM] | IC50 (HEK 293 cells) [µM] | SI (ratio of TC50 to IC50) (SARS-CoV-2 pseudovirus [2]) | IC50 (Beas-2B cells) [µM] | CC0 (maximum nontoxic concentration) (HEK-293T-ACE2^h cells) [µM] | TC50 (concentration reducing cell viability by 50%) (HEK-293T-ACE2^h cells) | IC50 (LO2 cells) [µM] | IC50 (SARS-CoV-2 pseudovirus [2]) [µM] |
| --- | --- | --- | --- | --- | --- | --- | --- | --- |
| Oc1cc(O)c2c(c1)OC(c1ccc(O)c(O)c1)C(O)C2 (racemic) [compound 21, (±)-Catechin] | 157 ± 12 | > 500 | >3.19 | > 500 | 300 | >500 µM | > 500 |  |
| COc1ccc2cc1Oc1ccc(cc1)C[C@H]1c3c(cc4c(c3Oc3cc5c(cc3OC)CCN(C)[C@@H]5C2)OCO4)CCN1C [Cepharanthine, reference compound] | 1.3 ± 0.18 | 24.3 ± 0.22 | 8.88 | 26.1 ± 1.08 | 6.25 | 11.54 µM and 11.54 ± 1.39 µM | 16.06 ± 0.13 |  |
| O=c1cc(-c2ccccc2)oc2cc(O)cc(O)c12 [compound 1, Chrysin] | > 100 |  | <1.69 |  | 100 | 168.50 ± 12.06 µM |  |  |
| O=c1cc(-c2ccc(O)cc2)oc2cc(O)cc(O)c12 [compound 2, Apigenin] | > 50 |  | <1.82 |  | 50 | 90.88 ± 3.13 µM |  |  |
| O=c1cc(-c2ccc(O)c(O)c2)oc2cc(O)cc(O)c12 [compound 3, Luteolin] |  | > 300 |  | > 300 | 200 | >300 µM | 183 ± 10.3 |  |
| O=c1cc(-c2ccc(O)cc2)oc2c([C@@H]3O[C@H](CO)[C@@H](O)[C@H](O)[C@H]3O)c(O)cc(O)c12 [compound 4, Vitexin] | > 300 |  |  |  | 300 | >500 µM |  |  |
| O=c1cc(-c2ccc(O)c(O)c2)oc2c([C@@H]3O[C@H](CO)[C@@H](O)[C@H](O)[C@H]3O)c(O)cc(O)c12 [compound 5, Orientin] | 63.7 ± 9.61 | > 500 | >7.85 | > 500 | 300 | >500 µM | > 500 |  |
| CC1OC(OC2C(c3c(O)cc(O)c4c(=O)cc(-c5ccc(O)cc5)oc34)OC(CO)C(O)C2O)C(O)C(O)C1O (centres unmarked) [compound 6, Vitexin-2″-O-rhamnoside] | > 300 |  |  |  | 300 | >500 µM |  |  |
| O=c1cc(-c2ccccc2)oc2cc(O)c(O)c(O)c12 [compound 7, Baicalein] | 51 ± 6.48 | > 500 | >9.80 | 494 ± 9.64 | 200 | >500 µM | > 500 |  |
| COc1c(O)cc2oc(-c3ccccc3)cc(=O)c2c1O [compound 8, Oroxylin A] | < 50 | > 300 | >8.08 | > 300 | 100 | >300 µM | > 300 | 37.1 ± 2.58 |
| O=c1cc(-c2ccc(O)cc2)oc2cc(O)c(O)c(O)c12 [compound 9, Scutellarein] | < 50 | > 300 | >10.25 | > 300 | 200 | >300 µM | > 300 | 29.3 ± 0.74 |
| O=c1cc(-c2ccccc2)oc2cc(O[C@@H]3O[C@H](CO)[C@@H](O)[C@H](O)[C@H]3O)c(O)c(O)c12 [compound 10, Oroxin A] | 84.6 ± 10.8 | 258 ± 10.6 | >3.55 | > 300 | 300 | >300 µM | > 300 |  |
| O=c1cc(-c2ccccc2)oc2cc(O[C@@H]3O[C@H](CO[C@@H]4O[C@H](CO)[C@@H](O)[C@H](O)[C@H]4O)[C@@H](O)[C@H](O)[C@H]3O)c(O)c(O)c12 [compound 11, Oroxin B] | 129 ± 19 | > 300 | >2.33 | > 300 | 300 | >300 µM | > 300 |  |
| O=C(O)[C@H]1O[C@@H](Oc2cc3oc(-c4ccccc4)cc(=O)c3c(O)c2O)[C@H](O)[C@@H](O)[C@@H]1O [compound 12, Baicalin] | 110 ± 11 | > 500 | >4.56 | > 500 | 300 | >500 µM | > 500 |  |
| COc1c(O[C@@H]2O[C@H](C(=O)O)[C@@H](O)[C@H](O)[C@H]2O)cc(O)c2c(=O)cc(-c3ccccc3)oc12 [compound 13, Wogonoside] | 119 ± 21 | > 500 | >4.20 | > 500 | 300 | >500 µM | > 500 |  |
| O=c1c(O[C@@H]2O[C@H](CO)[C@@H](O)[C@H](O)[C@H]2O)c(-c2ccc(O)cc2)oc2cc(O)cc(O)c12 [compound 17, Astragalin] | 133 ± 16.2 | > 500 | >3.76 | > 500 | 300 | >500 µM | > 500 |  |
| O=c1c(O[C@@H]2O[C@H](CO)[C@@H](O)[C@H](O)[C@H]2O)c(-c2ccc(O)c(O)c2)oc2cc(O)cc(O)c12 [compound 18, Isoquercitrin] | 94.4 ± 1.59 | > 500 | >5.30 | > 500 | 300 | >500 µM | > 500 |  |
| O=c1c(O[C@@H]2O[C@H](CO)[C@H](O)[C@H](O)[C@H]2O)c(-c2ccc(O)c(O)c2)oc2cc(O)cc(O)c12 [compound 19, Hyperoside] | 83.1 ± 10.7 | > 500 | >6.02 | > 500 | 300 | >500 µM | > 500 |  |
| C[C@@H]1O[C@@H](OC[C@H]2O[C@@H](Oc3c(-c4ccc(O)c(O)c4)oc4cc(O)cc(O)c4c3=O)[C@H](O)[C@@H](O)[C@@H]2O)[C@H](O)[C@H](O)[C@H]1O [compound 20, Rutin] | 147 ± 21.1 | > 500 | >3.40 | > 500 | 300 | >500 µM | > 500 |  |
| Oc1cc(O)c2c(c1)O[C@H](c1ccc(O)c(O)c1)[C@H](O)C2 [compound 22, (-)-Epicatechin] | 146 ± 20.8 | > 500 | >3.43 | > 500 | 300 | >500 µM | > 500 |  |
| Oc1cc(O)c2c(c1)O[C@H](c1cc(O)c(O)c(O)c1)[C@H](O)C2 [compound 23, (-)-Epigallocatechin] | 74.2 ± 10.7 | > 500 | 6.11 | 369 ± 1.7 | 200 | 453.10 ± 4.55 µM | 483.3 ± 1.52 |  |
| O=C(O[C@@H]1Cc2c(O)cc(O)cc2O[C@@H]1c1ccc(O)c(O)c1)c1cc(O)c(O)c(O)c1 [compound 24, (-)-Epicatechin gallate] | 58.8 ± 3.25 | > 500 | >8.51 | > 500 | 300 | >500 µM | > 500 |  |
| O=C(O[C@@H]1Cc2c(O)cc(O)cc2O[C@@H]1c1cc(O)c(O)c(O)c1)c1cc(O)c(O)c(O)c1 [compound 25, (-)-Epigallocatechin gallate] | < 50 | > 500 |  | > 500 | 300 | >500 µM | 430 ± 6.98 | 31.3 ± 7.4 |
| O=C(O[C@@H]1Cc2c(O)cc(O)cc2O[C@H]1c1cc(O)c(O)c(O)c1)c1cc(O)c(O)c(O)c1 [compound 26, (-)-Gallocatechin gallate] | < 50 | > 500 | >11.52 | > 500 | 300 | >500 µM | 433 ± 8.96 | 43.4 ± 2.93 |
| Oc1cc(O)c2c(c1)O[C@H](c1ccc(O)c(O)c1)[C@H](O)[C@H]2c1c(O)cc(O)c2c1O[C@H](c1ccc(O)c(O)c1)[C@@H](O)C2 [compound 27, Procyanidin B-1] | > 300 |  |  |  | 300 | >500 µM |  |  |
| Oc1cc(O)c2c(c1)O[C@H](c1ccc(O)c(O)c1)[C@H](O)[C@H]2c1c(O)cc(O)c2c1O[C@H](c1ccc(O)c(O)c1)[C@H](O)C2 [compound 28, Procyanidin B-2] | > 300 |  |  |  | 300 | >500 µM |  |  |
| Oc1cc(O)c2c(c1)O[C@H](c1ccc(O)c(O)c1)[C@@H](O)[C@@H]2c1c(O)cc(O)c2c1O[C@H](c1ccc(O)c(O)c1)[C@@H](O)C2 [compound 29, Procyanidin B-3] | > 300 |  |  |  | 300 | >500 µM |  |  |
